Measured values taken from patent publication US5559153A, “Urea-substituted benzoylguanidines, process for their preparation, their use as pharmaceutical or diagnostic, and pharmaceutical containing them” (priority 1993, dated 1996).
Counter-ions that a name gives are not always drawn.

Legend:
[1] = biological target: T1, Na^+ /H^+ exchanger of rabbit erythrocytes (Oryctolagus cuniculus, UniProt P23791); test: Inhibition of the Na^+ /H^+ exchanger of rabbit erythrocytes (Na^+ influx by flame photometry); assay type: cell-based, rabbit (New Zealand White); conditions: pH 7.4, 37° C., Na^+ influx in hyperosmolar salt/sucrose medium
T1 construct: Na^+ influx into the erythrocytes via Na^+ /H^+ exchange; endogenous in cells; host or cells: intact erythrocytes from blood of cholesterol-fed New Zealand White rabbits (Ivanovas)
Description: Inhibition of the Na^+ /H^+ exchanger of rabbit erythrocytes:
New Zealand White rabbits (Ivanovas) received a standard diet containing 2% cholesterol for six weeks in order to activate the Na^+ /H^+ exchange and thus to be able to determine, by flame photometry, the Na^+ influx into the erythrocytes via Na^+ /H^+ exchange. The blood was removed from the aural arteries and rendered incoagulable using 25 IE/ml of potassium heparin. A part of each sample was used for the duplicate determination of the hematocrit by means of centrifugation. Aliquots of in each case 100 μl were used for measuring the initial Na^+ content of the erythrocytes.
In order to determine the amiloride-sensitive sodium influx, 100 μl of each blood sample were in each case incubated, at pH 7.4 and 37° C., in 5 ml of a hyperosmolar salt/sucrose medium (mmol/l: 140 NaCl, 3 KCl, 150 sucrose, 0.1 ouabain, 20 tris(hydroxymethyl)aminomethane). The erythrocytes were then washed three times with ice-cold MgCl2 /ouabain solution (mmol/l: 112 MgCl2, 0.1 ouabain) and hemolyzed in 2.0 ml of distilled water. The intracellular sodium content was determined by flame photometry.
The net influx of Na^+ was calculated from the difference between the initial sodium values and the sodium content of the erythrocytes following incubation. The amiloride-inhibitable sodium influx resulted from the difference in the sodium content of the erythrocytes following incubation with and without amiloride 3×10^-4 mol/l. This method was also employed in the case of the compounds according to the invention.

[2] = system: artificially induced ventricular fibrillation, rat hearts; conditions: isolated rat hearts; cited from earlier work
cardiac arrhythmias = conditions: in vivo; cited from earlier work

T1 sequence (P23791 whole entry): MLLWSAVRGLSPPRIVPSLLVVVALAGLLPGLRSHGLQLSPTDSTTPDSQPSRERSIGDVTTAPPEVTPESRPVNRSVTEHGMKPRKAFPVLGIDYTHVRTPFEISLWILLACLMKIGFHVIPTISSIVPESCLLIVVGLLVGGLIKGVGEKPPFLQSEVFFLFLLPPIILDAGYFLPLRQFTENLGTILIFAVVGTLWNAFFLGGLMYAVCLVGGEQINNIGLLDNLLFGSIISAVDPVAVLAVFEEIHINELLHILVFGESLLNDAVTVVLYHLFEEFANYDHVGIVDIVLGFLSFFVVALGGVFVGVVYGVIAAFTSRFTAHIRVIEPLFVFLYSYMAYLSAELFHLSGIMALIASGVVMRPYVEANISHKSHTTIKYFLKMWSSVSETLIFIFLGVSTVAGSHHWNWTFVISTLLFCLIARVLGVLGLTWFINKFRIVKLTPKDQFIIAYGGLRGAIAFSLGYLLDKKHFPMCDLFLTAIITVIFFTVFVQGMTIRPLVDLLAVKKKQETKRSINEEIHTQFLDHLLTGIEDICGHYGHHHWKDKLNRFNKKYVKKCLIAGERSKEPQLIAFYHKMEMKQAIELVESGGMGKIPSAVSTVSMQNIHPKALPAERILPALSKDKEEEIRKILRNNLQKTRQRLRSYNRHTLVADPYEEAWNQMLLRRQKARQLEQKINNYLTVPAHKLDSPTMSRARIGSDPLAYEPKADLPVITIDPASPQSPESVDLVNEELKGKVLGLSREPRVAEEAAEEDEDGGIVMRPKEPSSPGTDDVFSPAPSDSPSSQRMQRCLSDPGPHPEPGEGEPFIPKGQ

IC50 [1] [µM]	Structure (SMILES)	other results
3	CN(C)C(=O)Nc1ccc(Cl)cc1C(=O)NC(=N)N [Example 3, 5-Chloro-2-(dimethylaminocarbonylamino)benzoylguanidine hydrochloride]	
3 to 5	CCNC(=S)Nc1cc(C(=O)NC(=N)N)ccc1Cl [Example 17, 4-Chloro-3-(ethylaminothiocarbonylamino)benzoylguanidine hydrochloride]	
1 to 2	N=C(N)NC(=O)c1cc(Cl)ccc1NC(=O)N1CCCCC1 [Example 1, 5-Chloro-2-(piperidinocarbonylamino)benzoylguanidine]	
	CCN(c1nc(N)c(C(=O)NC(=N)N)nc1Cl)C(C)C [ethylisopropylamiloride]	suppression of artificially induced ventricular fibrillation [2]: even more potent than amiloride
	N=C(N)NC(=O)c1nc(Cl)c(N)nc1N [amiloride]	antiarrhythmic effect (cardiac arrhythmias): only weakly expressed; side effects (hypotensive and saluretic) (cardiac arrhythmias): hypotensive and saluretic effects; suppression of artificially induced ventricular fibrillation [2]: completely suppress artificially induced ventricular fibrillation
2 to 5	CCCNC(=O)Nc1c(Cl)cc(C(=O)NC(=N)N)cc1Cl [Example 20, 3,5-Dichloro-4-(n-propylaminocarbonylamino)benzoylguanidine hydrochloride]	
1	N=C(N)NC(=O)c1cc(Cl)c(NC(=O)Nc2ccccc2)c(Cl)c1 [Example 21, 3,5-Dichloro-4-(phenylaminocarbonylamino)benzoylguanidine hydrochloride]	
3 to 8	CC(C)(C)NC(=O)Nc1ccc(Cl)cc1C(=O)NC(=N)N [Example 7, 5-Chloro-2-(tert-butylaminocarbonylamino)benzoylguanidine hydrochloride]	
